Experimental data from patent US4251520A, “Glucofuranose derivatives” (priority 1976, dated 1981).
Where two headings read alike, the source gives them in different places.

How the values were obtained:
Antipyretic activity = assay type: in vivo, rat; conditions: for Antipyretic activity (potency in comparison with aspirin = 100): 400 mg/kg p.o. rat; for Antipyretic action (in words): rat, in vivo
[1] = Analgesic activity, hot plate test; assay type: in vivo, mouse; conditions: po, read-out: Analgesic activity, increase of reaction time %
mouse = assay: in vivo; conditions: oral route, even at a dose of 4,000 mg./kg.
in vivo = conditions: mouse, in vivo, po
spasm by acetylcholine = assay: Antispasmodic activity in vitro, spasm by acetylcholine
[2] = Analgesic activity, protection from writhing; assay type: in vivo, mouse; conditions: po, read-out: Analgesic activity, protection from writhing %
[3] = test system: edema induced by formalin; assay: Anti-inflammatory activity, formalin-induced edema; assay type: in vivo, rat; conditions: po; for inhibition in vivo at 500 mg/kg: read-out: % inhibition of edema induced by formalin
spasm by histamine = assay: Antispasmodic activity in vitro, spasm by histamine
[4] = test system: edema induced by carrageenan; assay: Anti-inflammatory activity, carrageenin-induced oedema; assay type: in vivo, rat; conditions: for inhibition in vivo at 500 mg/kg: po, read-out: % inhibition of edema induced by carrageenan
Excerpt: Beginning, therefore, with D-glucose, we have prepared 1,2:5,6-di-O-isopropylidene-α-D-glucofuranose (II): [drawing 2] as well as 1,2-O-isopropylidene-α-D-glucofuranose and 1,2-O-isopropylidene-3,5,6-tri-O-benzyl-α-D-glucofuranose (1; Glen W. L., Myers G. S., Grant G. A., J. Chem. Soc., 2568/1951; (2) Meyer A. S., Reichstein T., Helv. Chim. Acta, 29, 139/1946; (3) Huber G., Rossi A., Helv. Chim. Acta, 51, 1185/1968) and have compared these compounds with (I) for anti-inflammatory activity against carrageenin-induced oedema (500 mg/kg, p.o. in rats).

edema induced by dextran = assay: Anti-inflammatory activity, dextran-induced edema; assay type: in vivo, rat; conditions: po; for inhibition in vivo at 500 mg/kg: read-out: % inhibition of edema induced by dextran
capillary permeability [5] = assay: Capillary permeability test
[6] = test system: oedema induced by carrageenin, dextran and formalin; assay: Anti-inflammatory activity tests (oedema by carrageenin, dextran and formalin); assay type: in vivo; conditions: rat
granuloma = assay: Granuloma cotton pellet test; conditions: for inhibition in vivo at 200 mg/kg: Rattus norvegicus, po, read-out: % inhibition of granuloma
capillary permeability [7] = conditions: 500 mg/kg p.o. mouse
[8] = test system: spasms induced by histamine and acetylcholine; assay: Antispasmodic activity tests in vitro (overall)
[9] = test system: edema induced by carrageenan; assay: Anti-inflammatory activity, carrageenin-induced oedema; assay type: in vivo; conditions: po; at a dose of 200 mg/kg p.o., rat (footnote e)
[10] = 500 mg/kg p.o. mouse, hot plate test
[11] = at a dose of 400 mg/kg p.o., mouse (footnote d)
[12] = at a dose of 200 mg/kg p.o., rat (footnote e)

Row | SMILES | Antipyretic activity (potency in comparison with aspirin = 100) (Antipyretic activity) | change in vivo at 500 mg/kg [1, 10] | LD50 (in vivo) | Antispasmodic activity in vitro, ED50, inhib. of spasm by acetylcholine (spasm by acetylcholine) | inhibition in vivo at 500 mg/kg ([2]; 500 mg/kg p.o. mouse) | inhibition in vivo at 500 mg/kg ([3]; 500 mg/kg p.o. rat) | Antispasmodic activity in vitro, ED50, inhib. of spasm by histamine (spasm by histamine) | inhibition in vivo at 500 mg/kg ([4]; 500 mg/kg p.o. rat) | inhibition in vivo at 500 mg/kg (edema induced by dextran; 500 mg/kg p.o. rat) | Capillary permeability, decrease % (capillary permeability [5]; 500 mg/kg p.o. mouse) | Antipyretic action (in words) (Antipyretic activity) | inhibition in vivo at 200 mg/kg (granuloma) | also measured
1 | CC1(C)OCC(C2OC3OC(C)(C)OC3C2OCc2ccccc2)O1 (stereo not drawn) [XI] | 8% | 0% | > 4000 mg/kg | > 100 µg/mL | 20% | 21% | > 100 µg/mL | 39% | 0% | 29% | – | – | Oral toxicity / tolerance (in words) (mouse): well tolerated
2 | CCCCCCCCCCCCCCCCOC1C(C2COC(C)(C)O2)OC2OC(C)(C)OC21 (stereo not drawn) [VIII] | 0% | 0% | > 4000 mg/kg | – | 20% | 0% | – | 13% | 0% | 22% | – | – | Oral toxicity / tolerance (in words) (mouse): well tolerated
3 | COC1C(C2COC(C)(C)O2)OC2OC(C)(C)OC21 (stereo not drawn) [III] | 70% | 20% | 2000 mg/kg | > 100 µg/mL | 20% | 25% | 100 µg/mL | 51% | 35% | 37% | retained | 0% | Anti-inflammatory potency compared with aspirin and phenylbutazone (in words) [6]: as potent as or more potent than aspirin and phenylbutazone; Inhibition of oedema induced by carrageenin, dextran and formalin, compared with (I) (in words) [6]: clearly more active than (I)
4 | CCCCCOC1C(C2COC(C)(C)O2)OC2OC(C)(C)OC21 [VII, 3-n-Pentyl-1,2:5,6-di-O-isopropylidene-α-D-glucofuranose] | 0% | 0% | 4000 mg/kg | > 100 µg/mL | 20% | 48% | > 100 µg/mL | 62% | 31% | 4% | – | 19% | Anti-inflammatory potency compared with aspirin and phenylbutazone (in words) [6]: as potent as or more potent than aspirin and phenylbutazone; Inhibition of oedema induced by carrageenin, dextran and formalin, compared with (I) (in words) [6]: clearly more active than (I); Inhibitory activity in the granuloma cotton pellet test (in words) (granuloma; rat, in vivo): some inhibitory activity
5 | CC(=O)OC1C(C2COC(C)(C)O2)OC2OC(C)(C)OC21 [XII, 3-Acetyl-1,2:5,6-di-O-isopropylidene-α-D-glucofuranose] | 0% | 20% | > 4000 mg/kg | > 100 µg/mL | 0% | 9% | > 100 µg/mL | 21% | 0% | 26% | – | – | Oral toxicity / tolerance (in words) (mouse): well tolerated
6 | CC1(C)OCC(C2OC3OC(C)(C)OC3C2O)O1 (stereo not drawn) | 63% | – | 4000 mg/kg | > 100 µg/mL | – | – | > 100 µg/mL | – | – | – | present | 0% | Capillary permeability, decrease % (capillary permeability [7]): 46%; change in vivo at 500 mg/kg ([1]; Mus musculus): 0%; inhibition in vivo at 500 mg/kg ([2]; Mus musculus): 20%; inhibition in vivo at 500 mg/kg ([3]; Rattus norvegicus): 19%; inhibition in vivo at 500 mg/kg ([4]; Rattus norvegicus): 33%; Anti-inflammatory activity compared with (I), preliminary tests ([4]; carrageenin-induced oedema, 500 mg/kg, p.o. in rats): fully comparable with that of (I); inhibition in vivo at 500 mg/kg (edema induced by dextran; Rattus norvegicus): 0%
7 | CC(=O)Oc1ccccc1C(=O)O [Aspirin, reference compound] | – | 70% | 1000 mg/kg | > 100 µg/mL | 100% | 29% | > 100 µg/mL | 53% | 47% | – | – | 12% | Antispasmodic activity (in words) [8]: inactive; Capillary permeability, decrease % (capillary permeability [5]; [11]): 73%
8 | CCCCC1C(=O)N(c2ccccc2)N(c2ccccc2)C1=O [Phenylbutazone, reference compound] | 85% | 10% | – | > 100 µg/mL | 100% | – | > 100 µg/mL | – | – | – | – | 31% | Antispasmodic activity (in words) [8]: inactive; inhibition in vivo at 200 mg/kg [3, 12]: 13%; inhibition in vivo at 200 mg/kg [9]: 52%; inhibition in vivo at 200 mg/kg (edema induced by dextran; [12]): 15%; Capillary permeability, decrease % (capillary permeability [5]; [11]): 75%
9 | C#CCOC1C(C2COC(C)(C)O2)OC2OC(C)(C)OC21 (stereo not drawn) [X] | 107% | 0% | 1500 mg/kg | 50 µg/mL | 20% | 36% | 50 µg/mL | 53% | 65% | – | retained | 0% | Anti-inflammatory potency compared with aspirin and phenylbutazone (in words) [6]: as potent as or more potent than aspirin and phenylbutazone; Inhibition of oedema induced by carrageenin, dextran and formalin, compared with (I) (in words) [6]: clearly more active than (I); Activity against spasms produced by acetylcholine (in words) (spasm by acetylcholine): moderately active
10 | CC1(C)OCC(C2OC3OC(C)(C)OC3C2OCCN2CCOCC2)O1 (stereo not drawn) [XX] | 14% | 40% | 1500 mg/kg | > 100 µg/mL | 0% | 43% | > 100 µg/mL | 59% | 65% | 58% | – | 0% | –
11 | CCN(CC)CCOC1C(C2COC(C)(C)O2)OC2OC(C)(C)OC21 (stereo not drawn) [XV] | 8% | 10% | 3000 mg/kg | > 100 µg/mL | 0% | 4% | 100 µg/mL | 60% | 58% | 20% | – | 0% | –
12 | CN(C)CCOC1C(C2COC(C)(C)O2)OC2OC(C)(C)OC21 [XIV, 3-(2-Dimethylaminoethyl)-1,2:5,6-di-O-isopropylidene-α-D-glucofuranose] | 43% | 10% | 1500 mg/kg | > 100 µg/mL | 20% | 28% | 100 µg/mL | 62% | 54% | 35% | retained | 0% | –
13 | CC(C)N(CCOC1C(C2COC(C)(C)O2)OC2OC(C)(C)OC21)C(C)C (stereo not drawn) [XVII] | 15% | 0% | 1000 mg/kg | 100 µg/mL | 40% | 32% | 70 µg/mL | 73% | 35% | 32% | – | 0% | –
